Values belong to the compound of their own block, whether it stands above or below them. No end group written: not given here.
Experiments:
Type in all cases: cell-based
human bronchi [1] = experiment: Effect of NK1, NK2 or NK3 receptor antagonists on peptide-induced contraction of human isolated bronchi; conditions: phosphoramidon 10^-6 M; for effect of antagonist on contraction by cumulative additions of hHK-1 / response to a single addition of 10^-6 M hHK-1 in the presence of antagonist / effect of antagonist on the response to [Sar^9,Met(O2)^11] SP (10^-6 M), single addition: antagonist 10^-7 M; for effect of antagonist on contraction by cumulative additions of hHK-1: n = 5-12; for response to a single addition of 10^-6 M hHK-1 in the presence of antagonist: % of ACh 3 mM, control 42 ± 4%, not significant, mean ± s.e.m., n = 6-12; for effect of antagonist on the response to [Sar^9,Met(O2)^11] SP (10^-6 M), single addition: n = 6; for effect of the association of SR 140333 and SR 48968 on contraction to a single addition of 10^-6 M hHK-1: both antagonists 10^-7 M together
From the text: (§1) Human bronchial tissues were removed from 47 patients undergoing surgical resection at Foch Hospital (Suresnes, France) or Val d'or Clinic (Saint Cloud, France) for lung cancer (31 men and 16 women; age = 64 ± 9 years). Just after resection, segments of human bronchi with an inner diameter (ID) of 1 to 3 mm were taken as far as possible from the malignant lesion. Male Hartley guinea pigs (Charles River, L'Arbresle, France) weighing 300 to 350 g were sacrificed by cervical dislocation, and tracheas and proximal bronchi were removed. After the removal of adhering lung parenchyma and connective tissues, rings from human bronchi (5-7 mm long, […]) and guinea pig trachea (3 mm long, 3 mm ID) or proximal airways (3 mm long, 1 mm ID) were prepared. 8 to 24 segments of human bronchi were obtained from each patient, whereas 8 trachea segments and 2 to 3 main bronchi segments were obtained from each guinea pig. For RT-PCR analysis, human bronchi were isolated within 1 hour after resection, immediately disrupted and homogenized in TRIzol reagent (Invitrogen) with a Potter Elvehjem homogenizer, and homogenates were kept frozen at -80°C until mRNA extraction. Experiments with human lung tissues were approved by the Regional Ethics Committee for Biomedical Research and animals were used as recommended by animal care guidelines.
(§2) Human bronchial rings and guinea pig tracheal and bronchial rings were suspended on hooks in 5 mL organ bath containing a modified Krebs-Henseleit solution (NaCl 119, KCl 4.7, CaCl2 2.5, KH2PO4 1.2, NaHCO3 25 and glucose 11.7 mM), maintained at 37°C and oxygenated with 95% O2 and 5% CO2. An initial tension of 2 g was applied to tissues, according to previously described protocols. Changes of tension were measured isometrically with Gould strain gauges (UF1; Piodem, Canterburry, Kent, UK); and were recorded and post-processed with IOX and Datanalyst softwares (Emka Technologies France, Paris). During the initial stabilization period (30 min), tissues were washed every 10 minutes with Krebs-Henseleit solution. Phosphoramidon was used to inhibit enzymatic degradation of tachykinins by NEP [21, 40]. Phosphoramidon (10^-6 M) was added in organ bath with or without NK1-, NK2- or NK3-receptor antagonists (SR 140333, SR 48968 and SR 142801, 10^-7 M) after the first stabilization period. Antagonist concentrations were chosen based on their reported affinities for human tachykinin receptors and on their ability to antagonize HK-1-induced responses at similar concentrations in other models. Tissues were then equilibrated 1 hour and concentration-response curves to tachykinins and related peptides were established by applying cumulative concentrations of peptides at 5 to 10 min intervals in semi-logarithmic increments, or by applying a single concentration of peptide. Only one concentration-response curve to tachykinins was recorded in each strip, and each experiment was performed in duplicate. Maximal response was determined by a final addition of acetylcholine hydrochloride (ACh, 3 mM). Contractile responses to tachykinins and related compounds were expressed as percentage of that induced by ACh. The pD2 (defined as the negative log of the molar drug concentration that caused 50% of maximal effect) were calculated from the log concentration-effect curves. When the pD2 value was not assessable (maximal effect (Emax) not reached), it was replaced by the -log EC20 (defined as the negative log of the drug concentration that caused 20% of maximal contraction with ACh). All values in the text and in the figures are expressed as arithmetic mean ± standard error of the mean (s.e.m) of duplicate experiments on tissues from the given (n) number of individuals or animals.

guinea pig main bronchi [2] = experiment: Effect of NK1 or NK2 receptor antagonists on hHK-1-induced contraction of guinea pig main bronchi; conditions: antagonist 10^-7 M; cumulative additions of hHK-1; phosphoramidon 10^-6 M; n = 5-7
From the text: (§3) Human bronchial tissues were removed from 47 patients undergoing surgical resection at Foch Hospital (Suresnes, France) or Val d'or Clinic (Saint Cloud, France) for lung cancer (31 men and 16 women; age = 64 ± 9 years). Just after resection, segments of human bronchi with an inner diameter (ID) of 1 to 3 mm were taken as far as possible from the malignant lesion. Male Hartley guinea pigs (Charles River, L'Arbresle, France) weighing 300 to 350 g were sacrificed by cervical dislocation, and tracheas and proximal bronchi were removed. […]
(§4) Human bronchial rings and guinea pig tracheal and bronchial rings were suspended on hooks in 5 mL organ bath containing a modified Krebs-Henseleit solution (NaCl 119, KCl 4.7, CaCl2 2.5, KH2PO4 1.2, NaHCO3 25 and glucose 11.7 mM), maintained at 37°C and oxygenated with 95% O2 and 5% CO2. […] Changes of tension were measured isometrically with Gould strain gauges (UF1; Piodem, Canterburry, Kent, UK); and were recorded and post-processed with IOX and Datanalyst softwares (Emka Technologies France, Paris). […] Only one concentration-response curve to tachykinins was recorded in each strip, and each experiment was performed in duplicate. Maximal response was determined by a final addition of acetylcholine hydrochloride (ACh, 3 mM). Contractile responses to tachykinins and related compounds were expressed as percentage of that induced by ACh. […]

guinea-pig trachea [3] = experiment: Effect of NK1 or NK2 receptor antagonists on hHK-1-induced contraction of guinea pig trachea; conditions: for effect of antagonist on contractions induced by hHK-1, guinea-pig trachea: antagonist 10^-7 M, cumulative additions of hHK-1, phosphoramidon 10^-6 M
From the text: as §3, with “removed. After the removal of adhering lung parenchyma and connective tissues, rings from human bronchi (5-7 mm long, […]) and guinea pig trachea (3 mm long, 3 mm ID) or proximal airways (3 mm long, 1 mm ID) were prepared. 8 to 24 segments of human bronchi were obtained from each patient, whereas 8 trachea segments and 2 to 3 main bronchi segments were obtained from each guinea pig.” for “removed.”
as §4, with “ACh. The pD2 (defined as the negative log of the molar drug concentration that caused 50% of maximal effect) were calculated from the log concentration-effect curves.” for “ACh.”

human bronchi [4] = experiment: Contraction of human isolated bronchi by tachykinin peptides (organ bath, isometric tension); conditions: phosphoramidon 10^-6 M
From the text: as §1, §2

guinea-pig trachea [5] = experiment: Contraction of guinea pig trachea by tachykinin peptides (organ bath); conditions: cumulative additions, phosphoramidon 10^-6 M; for Emax (% of Ach 3 mM) / pD2: guinea-pig trachea, mean ± s.e.m. for n determinations (n = 6-12); for contractile effect on guinea-pig trachea: EKA/B 10^-8 M-10^-6 M
From the text: as §1, §2

human bronchi [6] = experiment: Cross-desensitization of NK1 receptors after consecutive applications of hHK-1 and [Sar^9,Met(O2)^11] SP on human bronchi; conditions: phosphoramidon 10^-6 M, n = 5
Procedure: as §2

guinea pig main bronchi [7] = experiment: Contraction of guinea pig main bronchi by tachykinin peptides (organ bath); conditions: cumulative additions; phosphoramidon 10^-6 M; n = 6-7
From the text: as §3, §4

[8] = 10^-7 M, % of ACh 3 mM, mean ± s.e.m.

- effect of antagonist on contraction by cumulative additions of hHK-1 (human bronchi [1]): did not alter
Compound: CC(=O)N(C)C1(c2ccccc2)CCN(CCCC2(c3ccc(Cl)c(Cl)c3)CCCN(C(=O)c3ccccc3)C2)CC1 (stereo in doubt) [SR 142801, (S)-(N)-(1-(3-(1-benzoyl-3-(3,4-dichlorophenyl)piperidin-3-yl)propyl)-4-phenylpiperidin-4-yl)-N-methylacetamide]

- effect of antagonist on contractions induced by hHK-1, guinea pig main bronchi (guinea pig main bronchi [2]): altered to a lesser extent
- effect of antagonist on contraction by cumulative additions of hHK-1 (human bronchi [1]): completely abolished
- effect of antagonist on the response to [Sar^9,Met(O2)^11] SP (10^-6 M), single addition (human bronchi [1]): unmodified
- effect of the association of SR 140333 and SR 48968 on contraction to a single addition of 10^-6 M hHK-1 (human bronchi [1]): abolished the smooth muscle contraction
- effect of antagonist on contractions induced by hHK-1, guinea-pig trachea (guinea-pig trachea [3]): altered to a lesser extent
Compound: CC(=O)NC1(c2ccccc2)CCN(CC[C@H](CN(C)C(=O)c2ccccc2)c2ccc(Cl)c(Cl)c2)CC1 [SR 48968, (S)-N-methyl-N-[4-acetylamino-4-phenylpiperidino-2-(3,4-dichlorophenyl)butyl]benzamide]
- response to a single addition of 10^-6 M hHK-1 in the presence of antagonist (human bronchi [1]): 31 ± 4%

Compound: CC(C)Oc1cccc(CC(=O)N2CCC[C@](CC[N+]34CCC(c5ccccc5)(CC3)CC4)(c3ccc(Cl)c(Cl)c3)C2)c1.[Cl-] [SR 140333, (S)1-(2-[3-(3,4-dichlorophenyl)-1-(3-isopropoxyphenylacetyl)piperidin-3-yl]ethyl)-4-phenyl-1-azoniabicyclo [2.2.2]octane chloride]
- effect of antagonist on contractions induced by hHK-1, guinea pig main bronchi (guinea pig main bronchi [2]): abolished
- response to a single addition of 10^-6 M hHK-1 in the presence of antagonist (human bronchi [1]): 31 ± 5%
- effect of antagonist on contraction by cumulative additions of hHK-1 (human bronchi [1]): small but not statistically significant reduction
- effect of antagonist on the response to [Sar^9,Met(O2)^11] SP (10^-6 M), single addition (human bronchi [1]): specifically abolished
- effect of the association of SR 140333 and SR 48968 on contraction to a single addition of 10^-6 M hHK-1 (human bronchi [1]): abolished the smooth muscle contraction
- effect on maximal contractions induced by hHK-1, guinea-pig trachea (guinea-pig trachea [3]; SR 140333 10^-9 to 10^-7 M, n = 4-11, suggesting non competitive antagonism): reduced maximal contractions
- effect of antagonist on contractions induced by hHK-1, guinea-pig trachea (guinea-pig trachea [3]): abolished

Compound: [Sar^9,Met(O2)^11] substance P [[Sar^9,Met(O2)^11] SP]
- Emax, cumulative additions in the presence of SR 48968 (human bronchi [4]; NK2 antagonist SR 48968 10^-7 M, inverted U-shaped curve, % of ACh 3 mM, mean ± s.e.m.): 13 ± 3%
- pD2, single additions in the presence of SR 48968 (human bronchi [4]; NK2 antagonist SR 48968 10^-7 M, non cumulative additions, mean ± s.e.m., hHK-1 n = 5-7, [Sar^9,Met(O2)^11] SP n = 10): 8.0 ± 0.4
- maximal contraction, single additions in the presence of SR 48968 (human bronchi [4]; NK2 antagonist SR 48968 10^-7 M, non cumulative additions, sigmoid curve, % of ACh 3 mM, mean ± s.e.m., hHK-1 n = 5-7, [Sar^9,Met(O2)^11] SP n = 10): 26 ± 7%
- Emax (% of Ach 3 mM) (guinea-pig trachea [5]): 76 ± 2 % of Ach 3 mM
- pD2 (guinea-pig trachea [5]): 7.5 ± 0.1
- contraction, first addition of [Sar^9,Met(O2)^11] SP (followed by a second addition of the same peptide) (human bronchi [6]; [8]): 33 ± 7%
- contraction, initial addition of [Sar^9,Met(O2)^11] SP (followed by hHK-1) (human bronchi [6]; [8]): 32 ± 7%
- contraction, second addition of [Sar^9,Met(O2)^11] SP after a first addition of [Sar^9,Met(O2)^11] SP (human bronchi [6]; 10^-7 M, % of ACh 3 mM, mean ± s.e.m., p < 0.01 vs first): 4 ± 1%
- response to [Sar^9,Met(O2)^11] SP after a first addition of hHK-1 (human bronchi [6]; [Sar^9,Met(O2)^11] SP 10^-7 M after hHK-1 3.10^-7 M): abolished

Compound: [β-Ala^8]-NKA (4-10)
- Emax (% of Ach 3 mM) (guinea-pig trachea [5]): 80 ± 5 % of Ach 3 mM
- pD2 (guinea-pig trachea [5]): 8.3 ± 0.6

Compound: endokinin A/B [EKA/B]
- -log EC20 (human bronchi [4]; negative log of concentration causing 20% of maximal contraction with ACh, cumulative additions, mean ± s.e.m., n = 3): 7.2 ± 0.3
- potency on guinea-pig isolated bronchi compared with SP and [Sar^9,Met(O2)^11] SP (guinea pig main bronchi [7]): less potent

Compound: endokinin C (KKAYQLEHTFQGLL; ends and bridges not checked; UniProt Q86UU9 82-95, looked up) [EKC, peptide derived from TAC4, custom synthesized]
- contractile activity on human isolated bronchi (human bronchi [4]; cumulative additions, n = 3): devoid of any contractile activity
- contractile effect on guinea-pig trachea (guinea-pig trachea [5]): without effect

Compound: endokinin D [EKD]
- contractile activity on human isolated bronchi (human bronchi [4]; cumulative additions, n = 3): devoid of any contractile activity
- contractile effect on guinea-pig trachea (guinea-pig trachea [5]): without effect

Source: paper PMC2959027, “Expression and function of human hemokinin-1 in human and guinea pig airways” (Respiratory Research, 2010)
